From patent publication US12054471B2, “Thiocycloheptyne derivatives and their use” (Cristal Delivery B.V., priority 2018, dated 2024)

Tests used:
[1] = Reaction kinetics with benzylazide monitored by QTOF-ESI mass spectrometry to determine rate constant kt; format: physicochemical; conditions: 1.0 eq benzylazide, ACN/water/acetic acid (3:1:0.01%), MS
Experimental: The kt value for the conversion of benzylazide with BCN-OH and TMTHSI was investigated by monitoring the reactions via mass spectrometry. In this study, QTOF mass spectrometry with an ESI source coupled to it, was utilized as a method of measurements. In detail, the alkyne (TMTSHI or BCN-OH in ACN/water/acetic acid (3:1:0.01%) was reacted with 1.0 eq benzylazide and reaction kinetics were measured using MS. The results of the measurements are included in FIG. 55. The measured kt value for TMTHSI in the reaction with benzylazide is 0.83 M^−1S^−1, which is approximately 7 times faster than BCN-OH (0.12 M^−1S^−1).

[2] = Storage stability as a powder, checked by 1H-NMR and LC/MS; format: physicochemical; conditions: stored as a powder at both light and dark locations under atmospheric pressure; 1H-NMR and LC/MS (SC_BASE)
Text: TMTHSI was proven to be stable during storage.

[3] = Reaction kinetics of model click reaction with benzylazide, measured by NMR (CDCl3); format: physicochemical
Experimental: The alkyne (TMTSHI or BCN-OH) was reacted with 1.3 eq benzylazide and reaction kinetics were measured using NMR (CDCl3). Conversion of TMTHSI with benzyl azide reached 79% after 225 seconds, the reaction with BCN-OH took about 40-fold longer (9312 seconds). The reaction conversion (%) is calculated based on triazole signals, taking the plateau of triazole signal at the end of reaction as 100% level=when all TMTHSI or BCN-OH fully reacted with benzylazide. The results of the measurements are included in FIG. 17A.

[4] = Dommerholt et al.; cited from earlier work

| SMILES | kt value in the reaction with benzylazide [1] [M^−1S^−1] | compound still in tact after storage [2] [months] | time to reach 79% conversion with benzyl azide ([3]; 1.3 eq benzylazide, CDCl3, NMR) [s] | also measured |
| --- | --- | --- | --- | --- |
| CC1(C)C#CC(C)(C)CS(=N)(=O)C1 [Compound 3, 1-imino-3,3,6,6-tetramethyl-4,5-didehydro-2,3,6,7-tetrahydro-1H-1λ^6-thiepine 1-oxide] | 0.83 | ≥ 10 | 225 | rate relative to BCN-OH (times faster) [1]: approximately 7 times; Conversion with benzyl azide ([3]; after 225 seconds, 1.3 eq benzylazide, CDCl3, NMR, based on triazole signals): 79%; comparison of reaction kinetics with BCN-OH (FIG. 17A) ([3]; reaction with benzylazide, NMR): significantly faster than BCN-OH |
| OCC1[C@H]2CCC#CCC[C@@H]12 (some centres unmarked) [BCN-OH, reference compound] | 0.12 |  | 9312 | reaction time relative to TMTHSI (fold longer) ([3]; 1.3 eq benzylazide, CDCl3, NMR): about 40 fold |
| CC1(C)C#CC(C)(C)CSC1 [TMTH, 3,3,6,6-tetramethylthiacycloheptyne] |  |  |  | stability of TMTH [4]: poor stability |
| CC1(C)C#CC(C)(C)CS(=O)(=NC(=O)ON2C(=O)CCC2=O)C1 [Compound 12, 2,5-dioxopyrrolidin-1-yl (3,3,6,6-tetramethyl-1-oxido-4,5-didehydro-2,3,6,7-tetrahydro-1λ^6-thiepan-1-ylidene)carbamate] |  | ≥ 4 |  |  |
